Among the data in ChEMBL document CHEMBL1140971, “Synthesis of new 4-pyrrol-1-yl benzoic acid hydrazide analogs and some derived oxadiazole, triazole and pyrrole ring systems: a novel class of potential antibacterial and antitubercular agents” (2008) are MIC values, retold here.

What all share (format): functional
For assay [1], the system named is Mycobacterium tuberculosis. Put plainly: Antitubercular activity against Mycobacterium tuberculosis H37Rv after 21 days by broth dilution assay. As to conditions: 504 h.
The next assay relates to Staphylococcus aureus. Put plainly: Antibacterial activity against Staphylococcus aureus ATCC 11632 after 18 hrs by broth microdilution method. As to conditions: ATCC 11632, 18 h. For orientation: Broth dilution looks for growth in wells or tubes with falling amounts of substance.
For the next assay, the system named is Enterococcus faecalis. Put plainly: Antibacterial activity against Streptococcus faecalis ATCC 14506 after 18 hrs by broth microdilution method. As to conditions: ATCC 14506, 18 h.
The subject of another assay is Bacillus subtilis. As to the kind of experiment: Antibacterial activity against Bacillus subtilis ATCC 60511 after 18 hrs by broth microdilution method. As to conditions: ATCC 60511, 18 h.
For a further assay, the system named is Klebsiella pneumoniae. As to the kind of experiment: Antibacterial activity against Klebsiella pneumoniae ATCC 10031 after 18 hrs by broth microdilution method. As to conditions: ATCC 10031, 18 h.
The subject of another assay is Escherichia coli. As to the kind of experiment: Antibacterial activity against Escherichia coli ATCC 10536 after 18 hrs by broth microdilution method. As to conditions: ATCC 10536, 18 h.
A further assay has as its system Pseudomonas aeruginosa. Put plainly: Antibacterial activity against Pseudomonas aeruginosa ATCC 10145 after 18 hrs by broth microdilution method. Conditions: ATCC 10145, 18 h.

Each structure is given as a SMILES string. ≈ marks a conversion by molar mass, not a printed value. Where only a bound is given, the exact number is not on record here.

`O=C(N/N=C/c1cccc([N+](=O)[O-])c1)c1ccc(-n2cccc2)cc1`: the minimum inhibitory concentration (MIC) amounted to 62.5 µg/mL (≈ 187 µM) in assay [1]; 500 µg/mL (≈ 1500 µM) in the assay with Staphylococcus aureus; 500 µg/mL (≈ 1500 µM) with Enterococcus faecalis; 250 µg/mL (≈ 748 µM) against Bacillus subtilis; 500 µg/mL (≈ 1500 µM) against Klebsiella pneumoniae; 500 µg/mL (≈ 1500 µM) against Escherichia coli. This compound showed an MIC in the assay on Pseudomonas aeruginosa of 62.5 µg/mL (≈ 187 µM).

As to `C/C(=N\NC(=O)c1ccc(-n2cccc2)cc1)c1ccccc1`, the MIC was 62.5 µg/mL (≈ 206 µM) in assay [1]; 250 µg/mL (≈ 824 µM) with Staphylococcus aureus; 125 µg/mL (≈ 412 µM) in the assay on Enterococcus faecalis; 62.5 µg/mL (≈ 206 µM) against Bacillus subtilis; 125 µg/mL (≈ 412 µM) in the assay on Klebsiella pneumoniae; 125 µg/mL (≈ 412 µM) against Escherichia coli. This compound also returned an MIC in the assay with Pseudomonas aeruginosa of 62.5 µg/mL (≈ 206 µM).

Consider `NNC(=O)c1ccncc1` [ISONIAZID], for which, in assay [1], the minimum inhibitory concentration (MIC) worked out at 0.25 µg/mL (≈ 1.82 µM).

Regarding `Cc1ccc(C)n1NC(=O)c1ccc(-n2cccc2)cc1`, the MIC worked out at 31.2 µg/mL (≈ 112 µM) in assay [1]; 250 µg/mL (≈ 895 µM) with Staphylococcus aureus; 125 µg/mL (≈ 447 µM) with Enterococcus faecalis; 62.5 µg/mL (≈ 224 µM) with Bacillus subtilis; 250 µg/mL (≈ 895 µM) in the assay with Klebsiella pneumoniae; 125 µg/mL (≈ 447 µM) in the assay with Escherichia coli. Moreover, in the assay with Pseudomonas aeruginosa, the minimal inhibitory concentration (MIC) worked out at 62.5 µg/mL (≈ 224 µM).

For `CCn1cc(C(=O)O)c(=O)c2cc(F)c(N3CCNCC3)cc21` [NORFLOXACIN], the MIC in the assay with Staphylococcus aureus is under 5 µg/mL; against Enterococcus faecalis, under 5 µg/mL; with Bacillus subtilis it was at most 1 µg/mL; in the assay with Klebsiella pneumoniae, at most 1 µg/mL; with Escherichia coli it was at most 1 µg/mL; in the assay on Pseudomonas aeruginosa, over 5 µg/mL.

For the compound `O=C(NN=C(c1ccccc1)c1ccccc1)c1ccc(-n2cccc2)cc1`, the minimal inhibitory concentration (MIC) was found to be 62.5 µg/mL (≈ 171 µM) in assay [1]; 500 µg/mL (≈ 1370 µM) in the assay on Staphylococcus aureus; 250 µg/mL (≈ 684 µM) in the assay with Enterococcus faecalis; 62.5 µg/mL (≈ 171 µM) against Bacillus subtilis; 125 µg/mL (≈ 342 µM) against Klebsiella pneumoniae; 125 µg/mL (≈ 342 µM) in the assay with Escherichia coli. Moreover, in the assay on Pseudomonas aeruginosa, the minimal inhibitory concentration (MIC) stood at 62.5 µg/mL (≈ 171 µM).

On to `O=C(O)c1cn(C2CC2)c2cc(N3CCNCC3)c(F)cc2c1=O` [CIPROFLOXACIN], for which the MIC was under 5 µg/mL in the assay with Staphylococcus aureus; under 5 µg/mL with Enterococcus faecalis; at most 1 µg/mL in the assay with Bacillus subtilis; at most 1 µg/mL against Klebsiella pneumoniae; at most 1 µg/mL against Escherichia coli; over 5 µg/mL in the assay on Pseudomonas aeruginosa.

On to `O=C(N/N=C/c1c(Cl)cccc1Cl)c1ccc(-n2cccc2)cc1`, for which the minimal inhibitory concentration (MIC) worked out at 31.2 µg/mL (≈ 87.2 µM) in assay [1]; 125 µg/mL (≈ 349 µM) in the assay on Staphylococcus aureus; 125 µg/mL (≈ 349 µM) in the assay with Enterococcus faecalis; 62.5 µg/mL (≈ 174 µM) in the assay with Bacillus subtilis; 125 µg/mL (≈ 349 µM) against Klebsiella pneumoniae; 62.5 µg/mL (≈ 174 µM) in the assay with Escherichia coli. In addition, the MIC in the assay on Pseudomonas aeruginosa was 62.5 µg/mL (≈ 174 µM).

Regarding `CC(C)=NNC(=O)c1ccc(-n2cccc2)cc1`, the MIC is 62.5 µg/mL (≈ 259 µM) in assay [1]; 250 µg/mL (≈ 1040 µM) with Staphylococcus aureus; 125 µg/mL (≈ 518 µM) with Enterococcus faecalis; 62.5 µg/mL (≈ 259 µM) in the assay on Bacillus subtilis; 250 µg/mL (≈ 1040 µM) against Klebsiella pneumoniae; 125 µg/mL (≈ 518 µM) against Escherichia coli. Besides, the MIC in the assay on Pseudomonas aeruginosa stood at 62.5 µg/mL (≈ 259 µM).

Regarding `CC(=O)N1N=C(c2ccc(-n3cccc3)cc2)OC1c1c(Cl)cccc1Cl` (stereo not drawn), the MIC in assay [1] came to 31.2 µg/mL (≈ 78.1 µM); in the assay with Staphylococcus aureus it was 62.5 µg/mL (≈ 156 µM); with Enterococcus faecalis, 62.5 µg/mL (≈ 156 µM); against Bacillus subtilis it was 31.2 µg/mL (≈ 78.1 µM); in the assay with Klebsiella pneumoniae it was 62.5 µg/mL (≈ 156 µM); with Escherichia coli, 62.5 µg/mL (≈ 156 µM). Besides, the MIC with Pseudomonas aeruginosa was 31.2 µg/mL (≈ 78.1 µM).

As to `CC(=O)NNC(=O)c1ccc(-n2cccc2)cc1`, the MIC in assay [1] amounted to 62.5 µg/mL (≈ 257 µM); in the assay on Staphylococcus aureus, 500 µg/mL (≈ 2060 µM); in the assay on Enterococcus faecalis, 250 µg/mL (≈ 1030 µM); in the assay with Bacillus subtilis, 62.5 µg/mL (≈ 257 µM); against Klebsiella pneumoniae it was 125 µg/mL (≈ 514 µM); in the assay with Escherichia coli, 500 µg/mL (≈ 2060 µM). This compound also displayed an MIC with Pseudomonas aeruginosa of 62.5 µg/mL (≈ 257 µM).

In the case of `O=C(N/N=C/c1ccc(O)cc1)c1ccc(-n2cccc2)cc1`, the minimum inhibitory concentration (MIC) in assay [1] was 31.2 µg/mL (≈ 102 µM); against Staphylococcus aureus, 125 µg/mL (≈ 409 µM); in the assay with Enterococcus faecalis it was 125 µg/mL (≈ 409 µM); in the assay with Bacillus subtilis, 62.5 µg/mL (≈ 205 µM); against Klebsiella pneumoniae, 125 µg/mL (≈ 409 µM); against Escherichia coli, 62.5 µg/mL (≈ 205 µM). Moreover, in the assay on Pseudomonas aeruginosa, the minimal inhibitory concentration (MIC) came to 62.5 µg/mL (≈ 205 µM).

Consider `NNC(=O)c1ccc(-n2cccc2)cc1`, for which the MIC in assay [1] was 125 µg/mL (≈ 621 µM); in the assay with Staphylococcus aureus, 250 µg/mL (≈ 1240 µM); against Enterococcus faecalis it was 31.2 µg/mL (≈ 155 µM); against Bacillus subtilis, 8 µg/mL (≈ 39.8 µM); in the assay with Klebsiella pneumoniae, 125 µg/mL (≈ 621 µM); with Escherichia coli, 125 µg/mL (≈ 621 µM). Further, the minimum inhibitory concentration (MIC) against Pseudomonas aeruginosa was found to be 62.5 µg/mL (≈ 311 µM).

Take `O=C(N/N=C/c1ccccc1)c1ccc(-n2cccc2)cc1`: the minimal inhibitory concentration (MIC) in assay [1] is 125 µg/mL (≈ 432 µM); with Staphylococcus aureus, 250 µg/mL (≈ 864 µM); against Enterococcus faecalis, 250 µg/mL (≈ 864 µM); against Bacillus subtilis it was 125 µg/mL (≈ 432 µM); in the assay on Klebsiella pneumoniae, 125 µg/mL (≈ 432 µM); against Escherichia coli, 125 µg/mL (≈ 432 µM). This compound also had an MIC in the assay on Pseudomonas aeruginosa of 125 µg/mL (≈ 432 µM).

`CN(C)c1ccc(/C=N/NC(=O)c2ccc(-n3cccc3)cc2)cc1`: the MIC in assay [1] came out at 62.5 µg/mL (≈ 188 µM); against Staphylococcus aureus it was 250 µg/mL (≈ 752 µM); against Enterococcus faecalis, 125 µg/mL (≈ 376 µM); against Bacillus subtilis, 125 µg/mL (≈ 376 µM); in the assay on Klebsiella pneumoniae, 125 µg/mL (≈ 376 µM); in the assay on Escherichia coli, 250 µg/mL (≈ 752 µM). The compound also returned an MIC against Pseudomonas aeruginosa of 125 µg/mL (≈ 376 µM).

As to `Sc1nnc(-c2ccc(-n3cccc3)cc2)o1`, the MIC in assay [1] stood at 16 µg/mL (≈ 65.8 µM); in the assay with Staphylococcus aureus, 250 µg/mL (≈ 1030 µM); against Enterococcus faecalis it was 31.2 µg/mL (≈ 128 µM); with Bacillus subtilis it was 8 µg/mL (≈ 32.9 µM); with Klebsiella pneumoniae it was 125 µg/mL (≈ 514 µM); against Escherichia coli, 31.2 µg/mL (≈ 128 µM). Further, in the assay on Pseudomonas aeruginosa, the lowest concentration to inhibit growth (MIC) was 31.2 µg/mL (≈ 128 µM).

With `Nn1c(-c2ccc(-n3cccc3)cc2)n[nH]c1=S`, the MIC is 62.5 µg/mL (≈ 243 µM) in assay [1]; 500 µg/mL (≈ 1940 µM) in the assay on Staphylococcus aureus; 250 µg/mL (≈ 972 µM) with Enterococcus faecalis; 125 µg/mL (≈ 486 µM) in the assay on Bacillus subtilis; 125 µg/mL (≈ 486 µM) with Klebsiella pneumoniae; 500 µg/mL (≈ 1940 µM) with Escherichia coli. This compound also came in with an MIC in the assay on Pseudomonas aeruginosa of 125 µg/mL (≈ 486 µM).

Consider `CC(=O)N1N=C(c2ccc(-n3cccc3)cc2)OC1c1ccccc1` (stereo not drawn), for which the MIC in assay [1] amounted to 31.2 µg/mL (≈ 94.3 µM); in the assay with Staphylococcus aureus, 250 µg/mL (≈ 754 µM); against Enterococcus faecalis, 125 µg/mL (≈ 377 µM); in the assay on Bacillus subtilis, 62.5 µg/mL (≈ 189 µM); in the assay with Klebsiella pneumoniae, 62.5 µg/mL (≈ 189 µM); in the assay on Escherichia coli it was 125 µg/mL (≈ 377 µM). Besides, the MIC with Pseudomonas aeruginosa stood at 62.5 µg/mL (≈ 189 µM).

As usually defined, the MIC is the lowest concentration found to suppress growth. High values mean a need for much substance, low ones inhibition by little substance.
